# From US20090036437A1, “PHARMACEUTICAL COMPOSITION COMPRISING PHENOXAZINIUM COMPOUND AS AN ACTIVE INGREDIENT” (priority 2005, published 2009)
# Where two headings read alike, the source gives them in different places.
# Assays:
# [1] = tested on: Plasmodium Falciparum K1 strain; assay: in vitro growth-inhibiting screening assay, chloroquine-resistant falciparum malaria; format: cell-based; conditions: for EC50: chloroquine-resistant strain, 72 h culture, 3H-hypoxanthine, read-out: 50% growth-inhibiting concentration (nM) P. falciparum K1
# Description: Plasmodium Falciparum K1 strain was used as a chloroquine-resistant protozoa of falciparum malaria. RMI-1640 sterilized by filtration was supplemented with human serum of a final concentration of 5% to be used as a culture medium. The malaria protozoa were cultured under O2 concentration of 3%, CO2 concentration of 4%, N2 concentration of 93% at 37° C.
# A test sample was prepared by dissolving the test compounds according to the present invention and a positive control drug (chloroquine) in DMSO to a predetermined concentration. The erythrocytes infected with the cultured malaria protozoa were collected by centrifugation and so diluted with non-infected erythrocytes to have an initial infection ratio of 0.15%. The hematocrit value was then 2.5%. Culture mixture of the above malaria-infection culture medium (200 μL) was placed into each well of a 96-well culture plate, and the test sample comprising the predetermined amount of the test compound, and DMSO without the test compound were added to the wells in duplicate.
# After culture for 48 hours at 37° C., hypoxanthine labeled with radioactive tritium (^3H) of 0.5 μCi was added to each well. After the culture in the same conditions for further 24 hours, the sample was taken on a glass fiber filter and washed with distilled water. Intensity of radiation was measured by means of plate liquid scintillation counter (Wallac Co.), and an infection ratio of the protozoa of malaria was calculated with respect to a group treated with the test sample and the control. A growth-inhibiting ratio was then calculated from the resulting infection ratio in accordance with the following equation to determine 50% growth-inhibiting concentration (EC50).
# Growth-inhibiting ratio (%)=[1−(b−a)/(c−a)]×100 • a: Initial infection ratio; • b: Infection ratio of the test sample group; and • c: Infection ratio of the control group. In vitro Growth-Inhibiting Assay of Rat L6 Cells
# Anti-malaria effect of the samples was assessed by their EC50 values for the chloroquine-resistant protozoa of falciparum malaria and the rat L6 cell. A chemotherapy coefficient, which is used as an index for the selective toxicity for the chloroquine-resistant protozoa of falciparum malaria was calculated by the following equation, and the pharmaceutical effect was determined.
# Chemotherapy coefficient=(EC50 value of the test sample for rat L6 cell)/(EC50 value of the test sample for the chloroquine-resistant protozoa of falciparum malaria)
# [2] = tested on: Plasmodium berghei NK65 strain; assay: in vivo 4-day suppressive test, intraperitoneal administration, mouse infected with malaria; conditions: 4 days
# Description: This test was carried out in accordance with 4-day suppressive test that is a general in vivo test for the activity of an anti-malaria compound. Rodent malaria protozoa (Plasmodium berghei NK65 strain) were used in this test. Infected blood was prepared by infection with intraperitoneal administration into ICR male mouse (5 weeks age; SPF) and passage culture (subculture) thereafter. Blood was drawn from the vein of a tail of the moue infected with malaria, and its infection ratio was determined. After it was confirmed that the infection ratio had been increased up to an appropriated level (10˜20%), the blood infected with malaria was drawn from the heart of the mouse. The infection ratio and number (cells/mL) of erythrocytes were determined. An uninfected mouse (ICR male, 5 weeks age) was then infected with an injection of the infected erythrocytes so diluted with PBS as to comprise the protozoa of […] per dose (0.2 mL) into the vein of its tail.
# A test sample was prepared by dissolving the test compounds according to the present invention into physiologic saline (Otsuka Pharmaceuticals Industries) to a predetermined concentration. In the case where the compound was insoluble in water, it was dissolved into DMSO or Tween 20 to prepare the test sample. A control group (no drug-administration group) was treated only with physiologic saline. […]
# One group consisted of five mice. The intraperitoneal administration of the test sample started after two hours from the infection with malaria and continued for successive 4 days with a 24-hour interval. After 24 hours from the last administration, blood was drawn from the tail of the infected mouse to prepare a thin-layer smear, and the number of the erythrocytes infected with the malaria protozoa under a microscope with respect to the control group and the test sample groups. Parasitemia, i.e., the infection ratio with the malaria protozoa, was obtained by calculating an average value of the medium three mice except the two mice showing a maximum or minimum inhibition level. A cure rate (suppression) was then calculated from the resulting parasitemia in accordance with the following equation.
# Cure rate: suppression (%)=(b−a)/b×100 • a: Infection ratio of the test sample group; and • b: Infection ratio of the control group.
# [3] = tested on: Trypanosoma cruzi (Tulahuen C2C4 strain); assay: in vitro growth-inhibiting screening assay, protozoa of American trypanosomiasis; format: cell-based; conditions: for EC50: in infected rat L6 cells, 96 h, CPRG/Nonidet, read-out: 50% growth-inhibiting concentration (nM) Trypanosoma cruzi
# Description: The test was done using a trypomastigote and an amastigote of the protozoa of Trypanosoma cruzi (Tulahuen C2C4 strain) present in the infected rat L6 cells. The L6 cells were cultured in RPMI-1640 medium supplemented with 1% of […] (200 mM) and 10% of fetal calf serum under CO2 concentration of 5%, at 37° C.
# A test sample was prepared by dissolving the test compounds according to the present invention and a positive control drug (benznidazole) in DMSO to a predetermined concentration. Culture medium containing the protozoa of 5×10^3 was added into each well of 96-well culture plate and cultured for 48 hours. After the medium was exchanged, the test sample comprising the predetermined amount of the test compound, and DMSO without the test compound were added into each well in duplicate.
# After incubation of the culture plate for 96 hours in an incubator, a growth-inhibiting activity was assayed as follows. CPRG/Nonidet (50 μL) was added to each well followed by a further 2˜6-hour culture. The culture plate was then attached to an absorption micro titer plate reader, the absorbance at 540 nm was detected to calculate an infection ratio of the protozoa with respect to a group treated with the test sample and a control group. A growth-inhibiting ratio was then calculated from the resulting infection ratio in accordance with the following equation to determine 50% growth-inhibiting concentration (EC50).
# Growth-inhibiting ratio (%)=[1−(b−a)/(c−a)]×100 • a: Initial infection ratio; • b: Infection ratio of the test sample group; and • c: Infection ratio of the control group.
# A selective toxicity coefficient, which is used as an index for the selective toxicity for the protozoa of American trypanosomiasis, was calculated by the following equation, and the pharmaceutical effect was determined.
# A selective toxicity coefficient=(EC50 value of the test sample for rat L6 cell)/(EC50 value of the test sample for the protozoa of American trypanosomiasis).
# [4] = Table 5, 2.5 mg/kg/day intraperitoneal
# [5] = Table 5, 5.0 mg/kg/day intraperitoneal
# [6] = Table 5, 10 mg/kg/day intraperitoneal
# [7] = Table 5, 20 mg/kg/day intraperitoneal
SMILES,EC50 [1] [nM],Parasitaemia suppression (%) ([2]; 5 mg/kg/day intraperitoneal),"Parasitaemia suppression (%) [2, 4] [%]","Parasitaemia suppression (%) [2, 5] [%]","Parasitaemia suppression (%) [2, 6] [%]","Parasitaemia suppression (%) [2, 7] [%]",EC50 [3] [nM],Selective toxicity ([1]; EC50 rat L6 cell / EC50 P. falciparum K1),"EC50 ([1]; Plasmodium falciparum, K1) [nM]",Selective toxicity ([3]; EC50 rat L6 cell / EC50 protozoa of American trypanosomiasis),"EC50 ([3]; Trypanosoma cruzi, TULAHUEN) [nM]"
CCN(CC)c1ccc2nc3ccc(=[N+](CC)CC)cc-3oc2c1.[Cl-] [A-1 (60% purity)],4.6,46.3,30.5,46.3,82.4,95.8,149,,,,
CCN(CC)c1ccc2nc3ccc(=[N+](CC)CC)cc-3oc2c1.[Cl-] [A-1 (>95% purity)],2.1,79.2,,,,,15,,,,
CN(C)c1ccc2nc3ccc(=[N+](C)C)cc-3oc2c1.CN(C)c1ccc2nc3ccc(=[N+](C)C)cc-3oc2c1.[Cl-].[Cl-].[Cl][Zn][Cl] [Compound A-3],15.6,17.1,,,,,457,,,,
CC[N+](CC)=c1ccc2nc3ccc(N(C)C)cc3oc-2c1 [Compound A-4],,85.3,58.7,85.3,99.9,>99.99,,1200,2.1,22,211
CCCC[N+](CCCC)=c1ccc2nc3ccc(N(CC)CC)cc3oc-2c1.[Cl-] [Compound A-6],2.4,83.1,,,,,24,,,,
CCCC[N+](CCCC)=c1ccc2nc3ccc(N(C)C)cc3oc-2c1.[O-][Cl+3]([O-])([O-])[O-] [Compound A-7],1.5,90.3,,,,,22,,,,
